Results taken from ChEMBL document CHEMBL1201862, “PubChem BioAssay data set” (2004).
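Interpolation was linear, between the two tested concentrations surrounding the appropriate level; five concentrations were tested over 48 hours in 96-well plates. Abbreviation: GI50, concentration required for 50% inhibition of growth.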 Activity calls are given as the source filed them. Cut-off read from the data, not from the text of the source: active = GI50 up to about 1.1 µM and inactive = higher.

Legend:
Assay in all cases: NCI-60 cell line screen, 48 h
IGROV-1 = test system: IGROV-1
TK-10 = test system: TK-10
EKVX = test system: EKVX
SF-539 = test system: SF-539
K562 = test system: K562
ACHN = test system: ACHN
SF-295 = test system: SF-295
SK-MEL-5 = test system: SK-MEL-5
SK-OV-3 = test system: SK-OV-3
SK-MEL-28 = test system: SK-MEL-28
SNB-75 = test system: SNB-75
MDA-N = test system: MDA-N
M14 = test system: M14
NCI/ADR-RES = test system: NCI/ADR-RES
NCI-H522 = test system: NCI-H522
Hs-578T = test system: Hs-578T
HOP-62 = test system: HOP-62
OVCAR-4 = test system: OVCAR-4
A498 = test system: A498
UACC-62 = test system: UACC-62

Row | SMILES | GI50 (IGROV-1) | GI50 (TK-10) | GI50 (EKVX) | GI50 (SF-539) | GI50 (K562) | GI50 (ACHN) | GI50 (SF-295) | GI50 (SK-MEL-5) | GI50 (SK-OV-3) | GI50 (SK-MEL-28) | GI50 (SNB-75) | GI50 (MDA-N) | GI50 (M14) | GI50 (NCI/ADR-RES) | GI50 (NCI-H522) | GI50 (Hs-578T) | GI50 (HOP-62) | GI50 (OVCAR-4) | GI50 (A498) | GI50 (UACC-62)
1 | COc1ccc(N[S+]([O-])CCc2ccccc2)cc1 (configuration not stated) | 92.5 µM (inactive) | > 100 µM (inactive) | > 100 µM (inactive) | > 100 µM (inactive) | 73.3 µM (inactive) | > 100 µM (inactive) | > 100 µM (inactive) | > 100 µM (inactive) | 4.35 µM (inactive) | > 100 µM (inactive) | > 100 µM (inactive) | > 100 µM (inactive) | > 100 µM (inactive) | 58.1 µM (inactive) | > 100 µM (inactive) | 23.4 µM (inactive) | > 100 µM (inactive) | – | – | –
2 | COc1cccc(NCC(=O)Nn2c(-c3ccccc3)nc3ccccc3c2=O)c1 | 64.4 µM (inactive) | > 100 µM (inactive) | 91.6 µM (inactive) | > 100 µM (inactive) | > 100 µM (inactive) | > 100 µM (inactive) | > 100 µM (inactive) | 57.7 µM (inactive) | > 100 µM (inactive) | > 100 µM (inactive) | > 100 µM (inactive) | – | > 100 µM (inactive) | > 100 µM (inactive) | > 100 µM (inactive) | > 100 µM (inactive) | > 100 µM (inactive) | > 100 µM (inactive) | 17.6 µM (inactive) | 63.4 µM (inactive)
3 | COc1ccc(-c2cc(-c3cc(F)c(Cl)cc3Cl)[nH]n2)cc1OC | 19.2 µM (inactive) | 43.4 µM (inactive) | 22.2 µM (inactive) | 15.9 µM (inactive) | 46 µM (inactive) | 7.76 µM (inactive) | 18.3 µM (inactive) | 17.1 µM (inactive) | 31.9 µM (inactive) | 48.6 µM (inactive) | 23.3 µM (inactive) | 52.8 µM (inactive) | 75 µM (inactive) | 25.1 µM (inactive) | 20.2 µM (inactive) | 43.7 µM (inactive) | 39.9 µM (inactive) | 32.4 µM (inactive) | – | –
4 | CC(C)(C)OC(=O)N1C(OP(=O)(Oc2ccccc2)Oc2ccccc2)=COc2cccnc21 | 42.6 µM (inactive) | 31 µM (inactive) | 60.7 µM (inactive) | > 100 µM (inactive) | 44.9 µM (inactive) | 29.9 µM (inactive) | 34.7 µM (inactive) | 18.4 µM (inactive) | 98.2 µM (inactive) | 54.2 µM (inactive) | 33.3 µM (inactive) | 36.3 µM (inactive) | 37.1 µM (inactive) | 40.7 µM (inactive) | 47 µM (inactive) | 86.5 µM (inactive) | 60.5 µM (inactive) | 45.8 µM (inactive) | – | 64.6 µM (inactive)
5 | CC(C)=CCC(O)[C@](C)(O)[C@H]1[C@H](O)C[C@@]2(C)[C@@H]3CCc4cc(O)c(OC5OC(CO)C(O)C(O)C5O)cc4C3(C)C(=O)C[C@]12C (some centres not stated) | 89.3 µM (inactive) | > 100 µM (inactive) | > 100 µM (inactive) | > 100 µM (inactive) | > 100 µM (inactive) | > 100 µM (inactive) | > 100 µM (inactive) | > 100 µM (inactive) | > 100 µM (inactive) | > 100 µM (inactive) | > 100 µM (inactive) | > 100 µM (inactive) | > 100 µM (inactive) | > 100 µM (inactive) | > 100 µM (inactive) | – | > 100 µM (inactive) | > 100 µM (inactive) | > 100 µM (inactive) | > 100 µM (inactive)
6 | [O-][S+](CCc1ccccc1)Nc1ccccc1 (configuration not stated) | > 100 µM (inactive) | > 100 µM (inactive) | > 100 µM (inactive) | > 100 µM (inactive) | > 100 µM (inactive) | > 100 µM (inactive) | > 100 µM (inactive) | > 100 µM (inactive) | – | > 100 µM (inactive) | > 100 µM (inactive) | > 100 µM (inactive) | > 100 µM (inactive) | 58.5 µM (inactive) | > 100 µM (inactive) | 0.0406 µM (active) | > 100 µM (inactive) | – | – | –
7 | O=c1[nH]c2ccc(C(F)(F)F)cc2nc1Cc1ccccc1 | 23.4 µM (inactive) | > 100 µM (inactive) | 25.8 µM (inactive) | 31.3 µM (inactive) | 38.5 µM (inactive) | 29.1 µM (inactive) | 33.5 µM (inactive) | 24.7 µM (inactive) | 44.9 µM (inactive) | 39.7 µM (inactive) | 45.9 µM (inactive) | – | 29.9 µM (inactive) | 18.5 µM (inactive) | – | 22.3 µM (inactive) | 33 µM (inactive) | 33.4 µM (inactive) | 26.6 µM (inactive) | 42.9 µM (inactive)
8 | CC(N/N=C(\S)N1CCN(c2ccccn2)CC1)c1nccc2ccccc12 (configuration not stated) | – | 1.64 µM (inactive) | – | 0.646 µM (active) | < 0.01 µM (active) | 0.838 µM (active) | 1.3 µM (inactive) | 0.897 µM (active) | 0.241 µM (active) | 2.61 µM (inactive) | 6.43 µM (inactive) | – | 0.045 µM (active) | < 0.0216 µM (active) | 0.0782 µM (active) | 12.9 µM (inactive) | 2.86 µM (inactive) | 0.678 µM (active) | 5.71 µM (inactive) | 0.305 µM (active)
9 | O=C(O)c1cc2ccccc2c(/N=N/c2c([N+](=O)[O-])cc([N+](=O)[O-])cc2S(=O)(=O)O)c1O | > 100 µM (inactive) | > 100 µM (inactive) | > 100 µM (inactive) | – | > 100 µM (inactive) | > 100 µM (inactive) | > 100 µM (inactive) | > 100 µM (inactive) | > 100 µM (inactive) | > 100 µM (inactive) | > 100 µM (inactive) | > 100 µM (inactive) | > 100 µM (inactive) | > 100 µM (inactive) | > 100 µM (inactive) | > 100 µM (inactive) | > 100 µM (inactive) | > 100 µM (inactive) | – | > 100 µM (inactive)
10 | O=C1C(Cl)=C(Nc2ccc(S(=O)(=O)O)cc2)C(=O)c2ccccc21 | 20 µM (inactive) | 22.1 µM (inactive) | 15.7 µM (inactive) | 19.9 µM (inactive) | 28.2 µM (inactive) | 22 µM (inactive) | 33.6 µM (inactive) | 13.4 µM (inactive) | – | 32.1 µM (inactive) | 67.8 µM (inactive) | – | 21.4 µM (inactive) | > 100 µM (inactive) | 18.2 µM (inactive) | 24 µM (inactive) | 36.2 µM (inactive) | 38.5 µM (inactive) | – | 64.4 µM (inactive)
11 | Oc1cc2c3c(c1)c1cc4c(cc1c[n+]3CC2)OCO4 | 2.4 µM (inactive) | 13 µM (inactive) | 7.73 µM (inactive) | 2.28 µM (inactive) | 1.57 µM (inactive) | 3.1 µM (inactive) | 2.97 µM (inactive) | 4.97 µM (inactive) | 16.1 µM (inactive) | 7.82 µM (inactive) | 2.25 µM (inactive) | 8.63 µM (inactive) | 32.1 µM (inactive) | – | 0.492 µM (active) | 0.906 µM (active) | 8.45 µM (inactive) | 3.64 µM (inactive) | 35.4 µM (inactive) | 7.83 µM (inactive)
12 | COC(=O)c1ccc(-c2nc(C#N)c(N)o2)cc1 | 99.8 µM (inactive) | > 100 µM (inactive) | > 100 µM (inactive) | > 100 µM (inactive) | > 100 µM (inactive) | > 100 µM (inactive) | > 100 µM (inactive) | > 100 µM (inactive) | > 100 µM (inactive) | > 100 µM (inactive) | – | – | > 100 µM (inactive) | – | 39.4 µM (inactive) | 32.2 µM (inactive) | 67.9 µM (inactive) | > 100 µM (inactive) | – | –
13 | COc1cc([C@@H]2c3cc4c(cc3[C@@H](Nc3ccc(/N=C\c5ccc(C(=O)O[C@@H](C(=O)O[C@H]6C[C@@]7(O)[C@@H](OC(=O)c8ccccc8)[C@@H]8[C@]9(OC(C)=O)CO[C@@H]9C[C@H](O)[C@@]8(C)C(=O)[C@H](OC(C)=O)C(=C6C)C7(C)C)[C@@H](NC(=O)c6ccccc6)c6ccccc6)cc5)cc3)[C@H]3COC(=O)[C@H]23)OCO4)cc(OC)c1O | 12.4 µM (inactive) | 10.4 µM (inactive) | 16.3 µM (inactive) | 1.47 µM (inactive) | 2.28 µM (inactive) | 0.455 µM (active) | 1.99 µM (inactive) | 2.96 µM (inactive) | 2.78 µM (inactive) | > 38.8 µM (inactive) | 2.29 µM (inactive) | 9.33 µM (inactive) | 5.48 µM (inactive) | > 45.8 µM (inactive) | > 21.3 µM (inactive) | – | 2.93 µM (inactive) | > 50 µM (inactive) | 0.196 µM (active) | 4.26 µM (inactive)
14 | CSc1ncnc2c1ncn2CCC(=O)OC(C)(C)C | > 100 µM (inactive) | > 100 µM (inactive) | > 100 µM (inactive) | > 100 µM (inactive) | > 100 µM (inactive) | > 100 µM (inactive) | > 100 µM (inactive) | > 100 µM (inactive) | > 100 µM (inactive) | > 100 µM (inactive) | > 100 µM (inactive) | > 100 µM (inactive) | > 100 µM (inactive) | > 100 µM (inactive) | > 100 µM (inactive) | – | > 100 µM (inactive) | > 100 µM (inactive) | > 100 µM (inactive) | –
15 | COC(=O)Cc1ccc(Oc2nc3ccccc3nc2-c2cccs2)cc1 | > 100 µM (inactive) | 95.9 µM (inactive) | > 100 µM (inactive) | 52 µM (inactive) | > 100 µM (inactive) | > 100 µM (inactive) | 30.8 µM (inactive) | > 100 µM (inactive) | 24.8 µM (inactive) | > 100 µM (inactive) | 6.81 µM (inactive) | – | > 100 µM (inactive) | 79.4 µM (inactive) | > 100 µM (inactive) | 39.8 µM (inactive) | 38.5 µM (inactive) | > 100 µM (inactive) | – | > 100 µM (inactive)
